Source: patent publication US7094869B2, “Low molecular weight peptidomimetic growth hormone secretagogues” (Genentech, Inc., priority 1994, dated 2006)
Where two headings read alike, the source gives them in different places. Starred links: 1 amine or outer side, 2 acyl side, 3 side chain; linkers in the order of their positions; H or OH if unused. Non-standard residues stand in square brackets, D forms with d. Residues, ends and D or L forms follow the SMILES beside them. ξ: configuration not given here. *: point of attachment. dNMe2Nal = CN[C@H](Cc1ccc2ccccc2c1)C(=O)O; 1Nal = N[C@@H](Cc1cccc2ccccc12)C(=O)O; d2Nal = N[C@H](Cc1ccc2ccccc2c1)C(=O)O; Ethylenediamine = C(CN[*:2])N[*:1]; d(hPhe) = N[C@H](CCc1ccccc1)C(=O)O; ξ2Nal = NC(Cc1ccc2ccccc2c1)C(=O)O; NMeGABA = CN(CCCC(=O)[*:2])[*:1]; αMeF = C[C@](N)(Cc1ccccc1)C(=O)O; Morpholide = C1CN(*)CCO1; Nle = CCCC[C@H](N)C(=O)O; Inp = O=C(O)C1CCNCC1; ξK = NCCCCC(N)C(=O)O; Ahp = NCCCCCCC(=O)O; Ava = NCCCCC(=O)O; GABA = NCCCC(=O)O; βAla = NCCC(=O)O

Assays:
growth hormone secretion = assay: GHRP induced growth hormone secretion, intravenous administration (Rat IV); assay type: in vivo; details: serum GH 10 min after injection; for RAT IV ED50: iv injection
How it was run: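 Female Sprague Dawley rats (24-30 days, 50-90 g) under intraperitoneal pentobarbitone received graded intravenous tail-vein peptide doses in pH 5.0 sodium acetate/mannitol buffer 20 min post-anaesthesia. Blood by cardiac puncture 10 min after dosing; serum GH measured by rat GH ELISA in duplicate.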

rat pituitary cells = rat pituitary cells (Rattus norvegicus, UniProt O08725); details: GH release, 15 min incubation
rat pituitary cells, sequence (O08725 whole entry): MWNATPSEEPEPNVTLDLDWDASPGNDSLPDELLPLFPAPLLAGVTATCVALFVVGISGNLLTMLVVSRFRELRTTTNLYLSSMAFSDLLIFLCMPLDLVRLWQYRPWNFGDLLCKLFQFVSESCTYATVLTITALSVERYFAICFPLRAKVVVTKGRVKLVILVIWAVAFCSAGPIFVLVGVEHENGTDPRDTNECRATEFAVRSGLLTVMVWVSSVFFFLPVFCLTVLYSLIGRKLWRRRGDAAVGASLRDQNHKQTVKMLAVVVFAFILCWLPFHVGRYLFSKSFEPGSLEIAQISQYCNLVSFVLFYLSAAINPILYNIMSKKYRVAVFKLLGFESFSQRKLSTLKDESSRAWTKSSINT
How it was run: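 Primary rat anterior pituitary cells, cultured three days in DME low glucose/10% FBS, were washed, pre-incubated twice for 15 min, then challenged 15 min with test compounds (DMSO ≤0.1%) at 37 °C. Released GH was measured by two-site ELISA; EC50 came from 4-parameter fits, mean of three to four independent determinations.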

[1] = read-out: PIT Cell EC50, Table III, formula IV compounds
[2] = read-out: PIT Cell EC50, Table IV, formula III compounds
[3] = read-out: PIT Cell EC50, Table V, formula II compounds

Row | Structure (SMILES) | RAT IV ED50 (growth hormone secretion; Table III) | EC50 (rat pituitary cells; [1]) | RAT IV ED50 (growth hormone secretion; Table IV) | EC50 (rat pituitary cells; [2]) | other results
1 | CN(C(=O)C1CCNCC1)[C@H](Cc1ccc2ccccc2c1)C(=O)N[C@H](Cc1ccc2ccccc2c1)C(=O)N[C@@H](Cc1ccccc1)C(=O)N1CCOCC1 [(inip) nmb b F mor] (H-[Inp][dNMe2Nal][d2Nal]F-Morpholide) | 10 µg | 0.8 nM |  |  | 
2 | NCCCCC(=O)N[C@H](Cc1ccc2ccccc2c1)C(=O)N[C@H](Cc1ccc2ccccc2c1)C(=O)N[C@@H](Cc1ccccc1)C(=O)N[C@@H](CC(N)=O)C(N)=O [(Ava) b b F N amide] (H-[Ava][d2Nal][d2Nal]FN-NH2) | 200 µg | 7.7 nM |  |  | 
3 | NCCNC(=O)[C@@H](Cc1ccc2ccccc2c1)NC(=O)[C@@H](Cc1ccc2ccccc2c1)NC(=O)C1CCNCC1 [(inip) b b tam] (H-[Inp]-[d2Nal]-[d2Nal]-Ethylenediamine) |  |  | 20 µg | 11 nM | 
4 | C[C@H](N)C(=O)N[C@H](Cc1ccc2ccccc2c1)C(=O)N[C@H](Cc1ccc2ccccc2c1)C(=O)N[C@@H](Cc1ccccc1)C(=O)N[C@@H](CCCCN)C(N)=O [A b b F K amide] (H-A[d2Nal][d2Nal]FK-NH2) | 10 µg | 2.1 nM |  |  | 
5 | CNCCCC(=O)NC(Cc1ccc2ccccc2c1)C(=O)N[C@H](Cc1ccc2ccccc2c1)C(=O)N[C@@H](Cc1ccccc1)C(=O)NC(CCCCN)C(N)=O (stereo partly drawn) [(mab) b b F K amide, [4-(N-methylamino)butanoyl]-DβNal-DβNal-Phe-Lys-amide] (NMeGABA-[ξ2Nal][d2Nal]F[ξK]-NH2) | 0.7 µg | 1.4 nM |  |  | 
6 | NC(=O)[C@H](Cc1ccccc1)NC(=O)[C@@H](CCc1ccccc1)NC(=O)[C@@H](Cc1ccc2ccccc2c1)NC(=O)C1CCNCC1 [(inip) b hf F amide] (H-[Inp][d2Nal][d(hPhe)]F-NH2) |  |  | 10 µg | 14 nM | 
7 | NC(=O)[C@H](Cc1cccc2ccccc12)NC(=O)[C@@H](Cc1ccc2ccccc2c1)NC(=O)[C@@H](Cc1ccc2ccccc2c1)NC(=O)C1CCNCC1 [(inip) b b npA amide] (H-[Inp][d2Nal][d2Nal][1Nal]-NH2) |  |  | 5 µg | 0.2 nM | 
8 | N[C@H]1CC[C@H](NC(=O)[C@@H](Cc2ccc3ccccc3c2)NC(=O)[C@@H](Cc2ccc3ccccc3c2)NC(=O)C2CCNCC2)CC1 [(inip) b b cxa] |  |  | 10 µg | 14 nM | 
9 | CN(CCc1ccc2ccccc2c1)C(=O)[C@@H](Cc1ccc2ccccc2c1)NC(=O)C1CCNCC1 [(inip) b men, (inip)-DβNal-[N-methyl, N-1-{2-(2-naphthyl)ethyl}] amide] |  |  |  |  | RAT IV ED50 (growth hormone secretion; Table V): 500 µg; EC50 (rat pituitary cells; [3]): 12 nM
10 | NCCCCC(NC(=O)[C@H](Cc1ccccc1)NC(=O)[C@@H](Cc1ccc2ccccc2c1)NC(=O)C(Cc1ccc2ccccc2c1)NC(=O)CCCN)C(N)=O (stereo partly drawn) [(Ab) b b F K amide, (4-aminobutanoyl)-DβNal-DβNal-Phe-Lys-amide] (H-[GABA][ξ2Nal][d2Nal]F[ξK]-NH2) | 1 µg | 0.4 nM |  |  | 
11 | C[C@H](NC(=O)[C@@H](Cc1ccc2ccccc2c1)NC(=O)CCCCN)C(=O)N[C@@H](Cc1c[nH]c2ccccc12)C(=O)N[C@H](Cc1ccccc1)C(=O)N[C@@H](CCCCN)C(N)=O [(Ava) b A W f K amide, reference compound] (H-[Ava][d2Nal]AW[dF]K-NH2) |  |  |  |  | Rat IV ED50 (growth hormone secretion; Table II, iv tail vein injection, anesthetized weanling female rats): 1.5 µg; EC50 (rat pituitary cells; read-out: “Pit” Cell EC50, Table II, prior art compounds): 0.2 nM
12 | NCCCCC(NC(=O)[C@H](Cc1cccc2ccccc12)NC(=O)[C@@H](Cc1ccc2ccccc2c1)NC(=O)C(Cc1ccc2ccccc2c1)NC(=O)C1CCNCC1)C(N)=O (stereo partly drawn) [(inip) b b npA K amide, (inip)-DβNal-DβNal-αNal-Lys-amide] (H-[Inp][ξ2Nal][d2Nal][1Nal][ξK]-NH2) | 1 µg | 0.1 nM |  |  | 
13 | NCCCC[C@H](NC(=O)[C@H](Cc1ccccc1)NC(=O)[C@@H](Cc1c[nH]c2ccccc12)NC(=O)[C@@H](Cc1c[nH]c2ccccc12)NC(=O)CN)C(N)=O [G w w F K amide] (H-G[dW][dW]FK-NH2) | 2.5 µg | 2.1 nM |  |  | 
14 | O=C(N[C@H](Cc1c[nH]c2ccccc12)C(=O)N[C@@H](CO)Cc1c[nH]c2ccccc12)C1CCNCC1 [(inip) w wol] |  |  |  |  | RAT IV ED50 (growth hormone secretion; Table V): 20 µg; EC50 (rat pituitary cells; [3]): 4 nM
15 | NCCCCC(=O)N[C@H](Cc1c[nH]c2ccccc12)C(=O)N[C@H](Cc1c[nH]c2ccccc12)C(=O)N[C@@H](Cc1ccccc1)C(=O)N[C@@H](CCCCN)C(N)=O [(Ava) w w F K amide] (H-[Ava][dW][dW]FK-NH2) | 5 µg | 13 nM |  |  | 
16 | NCCCC[C@H](NC(=O)[C@H](Cc1ccccc1)NC(=O)[C@@H](Cc1ccc2ccccc2c1)NC(=O)[C@@H](Cc1ccc2ccccc2c1)NC(=O)CCN)C(N)=O [bA b b F K amide] (H-[βAla][d2Nal][d2Nal]FK-NH2) | 6.7 µg | 4.8 nM |  |  | 
17 | NC(=O)[C@@H](Cc1ccccc1)NC(=O)[C@@H](Cc1ccc2ccccc2c1)NC(=O)[C@@H](Cc1ccc2ccccc2c1)NC(=O)C1CCNCC1 [(inip) b b f amide] (H-[Inp][d2Nal][d2Nal][dF]-NH2) |  |  | 20 µg | 0.6 nM | 
18 | NCCCCCCC(=O)N[C@H](Cc1ccc2ccccc2c1)C(=O)N[C@H](Cc1ccc2ccccc2c1)C(=O)N[C@@H](Cc1ccccc1)C(=O)N[C@@H](CCCCN)C(N)=O [(ahp) b b F K amide] (H-[Ahp][d2Nal][d2Nal]FK-NH2) | 100 µg | 34.3 nM |  |  | 
19 | CN[C@H](Cc1ccc2ccccc2c1)C(=O)N[C@H](Cc1ccc2ccccc2c1)C(=O)N[C@@H](Cc1ccccc1)C(=O)N[C@@H](CCCCN)C(N)=O [nmb b F K amide] (H-[dNMe2Nal][d2Nal]FK-NH2) | 1000 µg | > 100 nM |  |  | 
20 | C[C@@](Cc1ccccc1)(NC(=O)[C@@H](Cc1ccc2ccccc2c1)NC(=O)[C@@H](Cc1ccc2ccccc2c1)NC(=O)C1CCNCC1)C(N)=O [(inip) b b amF amide] (H-[Inp][d2Nal][d2Nal][αMeF]-NH2) |  |  | 5 µg | 0.5 nM | 
21 | NC[C@H](Cc1ccc2ccccc2c1)NC(=O)[C@@H](Cc1ccc2ccccc2c1)NC(=O)C1CCNCC1 [(inip) b Bmn] |  |  |  |  | RAT IV ED50 (growth hormone secretion; Table V): 20 µg; EC50 (rat pituitary cells; [3]): 36 nM
22 | NCCCCC(=O)N[C@H](Cc1ccc2ccccc2c1)C(=O)N[C@H](Cc1ccc2ccccc2c1)C(=O)N[C@@H](Cc1ccccc1)C(N)=O [(Ava) b b F amide] (H-[Ava][d2Nal][d2Nal]F-NH2) |  |  | 100 µg | 17.1 nM | 
23 | CN(C(=O)CCCN)[C@H](Cc1ccc2ccccc2c1)C(=O)N[C@H](Cc1ccc2ccccc2c1)C(=O)N[C@@H](Cc1ccccc1)C(N)=O [(Ab) nmb b F amide] (H-[GABA][dNMe2Nal][d2Nal]F-NH2) |  |  | 20 µg | 0.2 nM | 
24 | O=C(N[C@H](Cc1ccc2ccccc2c1)C(=O)NCCc1c[nH]c2ccccc12)C1CCNCC1 [(inip) b tra, (inip)-DβNal-[N-tryptaminyl] amide] |  |  |  |  | RAT IV ED50 (growth hormone secretion; Table V): 100 µg; EC50 (rat pituitary cells; [3]): 100 nM
25 | O=C(N[C@H](Cc1ccc2ccccc2c1)C(=O)NCCc1ccc2ccccc2c1)C1CCNCC1 [(inip) b npe, (inip)-DβNal-[N-1-{2-(2-naphthyl)ethyl}] amide] |  |  |  |  | RAT IV ED50 (growth hormone secretion; Table V): 500 µg; EC50 (rat pituitary cells; [3]): 11 nM
26 | CCCC[C@H](NC(=O)[C@@H](Cc1ccc2ccccc2c1)NC(=O)[C@@H](Cc1ccc2ccccc2c1)NC(=O)C1CCNCC1)C(N)=O [(inip) b b nL amide] (H-[Inp][d2Nal][d2Nal][Nle]-NH2) |  |  | 3.3 µg | 4.3 nM | 
